The text below walks through data of patent publication US7923561B2 (Hoffmann-La Roche Inc., priority 2006, dated 2011).

Series [1] deals with T1, recombinant human 5-HT5A receptor (Homo sapiens, UniProt P47898).
T1 construct: expressed in transfected cells; host or cells: HEK-EBNA (Human Embryonic Kidney-EBNA) cells, transient cDNA expression, membranes
Briefly: [3H]LSD radioligand binding assay, membranes of HEK-EBNA cells transiently expressing 5-HT5A receptors. As to conditions: [3H]LSD approx. 1 nM, SPA beads, 120 min at room temperature; Ki from IC50 by Cheng-Prussoff equation. Here is the method:
A [^3H]LSD radioligand binding assay was used to determine the affinity of the compounds for the recombinant human 5-HT5A receptor, in membranes from transiently (cDNA) expressed 5-HT5A receptors in Human Embryonic Kidney-EBNA (HEK-EBNA) cells. Assay buffer consisted of Tris (50 mM) buffer containing 1 mM EGTA, 10 mM MgCl2 (pH 7.4) and 10 μM pargyline. The binding assay was carried out in 96-well-plates in the presence of [^3H]LSD (approximately 1 nM), approximately 2 μg/well of membrane protein, and 0.5 mg of Ysi-poly-1-lysine SPA beads in a final volume of 200 μl of buffer. Non-specific binding was defined using methiothepin 2 μM. Compounds were tested at 10 concentrations. All assays were conducted in duplicate and repeated at least two times. Assay plates were incubated for 120 min at room temperature before centrifugation. Bound ligand was determined using a Packard Topcount scintillation counter. IC50 values were calculated using a non-linear curve fitting program and Ki values calculated using the Cheng-Prussoff equation.

In general, Ki refers to a measure of affinity in units of concentration, obtained from inhibition or displacement. A word on the melting point: it is the temperature of the solid-liquid transition.

T1 sequence (P47898 whole entry): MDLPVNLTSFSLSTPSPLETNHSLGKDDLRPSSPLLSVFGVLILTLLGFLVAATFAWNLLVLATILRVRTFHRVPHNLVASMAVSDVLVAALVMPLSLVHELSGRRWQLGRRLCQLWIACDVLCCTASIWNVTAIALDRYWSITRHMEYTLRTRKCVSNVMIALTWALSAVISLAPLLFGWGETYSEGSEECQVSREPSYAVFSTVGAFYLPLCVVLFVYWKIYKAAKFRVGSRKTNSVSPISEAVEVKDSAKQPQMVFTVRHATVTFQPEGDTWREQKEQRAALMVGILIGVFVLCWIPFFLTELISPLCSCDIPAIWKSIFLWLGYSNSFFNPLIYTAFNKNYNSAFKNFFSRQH

Molecule `ON=C(c1ccccc1)c1cccc2nc(N[C@@H]3CCc4ccccc43)ccc12` [Example 91, [2-((R)-Indan-1-ylamino)-quinolin-5-yl]-phenyl-methanone oxime] gave a melting point of 175.5 °C. In addition, the Ki in series [1] was 1.55 nM.

Take `ON=C(c1ccc(Cl)cc1)c1cccc2nc(N[C@@H]3CCc4ccccc43)ccc12` [Example 92, (4-Chloro-phenyl)-[2-((R)-indan-1-ylamino)-quinolin-5-yl]-methanone oxime]: the melting point was determined as 194 °C. Further, in series [1], the inhibition constant (Ki) stood at 5.48 nM.

`ON=C(c1cccc(F)c1)c1cccc2nc(N[C@@H]3CCc4ccccc43)ccc12` [Example 96, (3-Fluoro-phenyl)-[2-((R)-indan-1-ylamino)-quinolin-5-yl]-methanone oxime] yielded a melting point of 179.5 °C. Moreover, the inhibition constant Ki in series [1] is 1.22 nM.

`ON=C(c1cc(F)cc(F)c1)c1cccc2nc(N[C@@H]3CCc4ccccc43)ccc12` [Example 101, (3,5-Difluoro-phenyl)-[2-((R)-indan-1-ylamino)-quinolin-5-yl]-methanone oxime] gave a melting point of 120.5 °C. The Ki in series [1] worked out at 7.7 nM.

Consider `O=C(c1cccs1)c1cccc2nc(N[C@@H]3CCc4ccccc43)ccc12` [Example 102, [2-((R)-Indan-1-ylamino)-quinolin-5-yl]-thiophen-2-yl-methanone], for which the melting point was found to be 176 °C. For the same molecule, the Ki in series [1] is 33.4 nM.

`O=C(c1ccc(CN2CCOCC2)cc1)c1cccc2nc(N[C@@H]3CCc4ccccc43)ccc12` [Example 103, [2-((R)-Indan-1-ylamino)-quinolin-5-yl]-(4-morpholin-4-ylmethyl-phenyl)-methanone] displayed a melting point of 160 °C. In addition, in series [1], the Ki stood at 678 nM.

In the case of `ON=C(c1cccs1)c1cccc2nc(N[C@@H]3CCc4ccccc43)ccc12` [Example 104, [2-((R)-Indan-1-ylamino)-quinolin-5-yl]-thiophen-2-yl-methanone oxime], the melting point turned out to be 194 °C. Also, in series [1], the Ki turned out to be 3.64 nM.

As for `ON=C(c1ccc(CN2CCOCC2)cc1)c1cccc2nc(N[C@@H]3CCc4ccccc43)ccc12` [Example 105, [2-((R)-Indan-1-ylamino)-quinolin-5-yl]-(4-morpholin-4-ylmethyl-phenyl)-methanone oxime], the melting point turned out to be 167 °C. Besides, the Ki in series [1] is 23.2 nM.
